Experimental data published in paper PMC12752606, “METTL10‐Mediated PIAS3 Methylation Links Purine Metabolism to Gastric Cancer Progression” (Advanced Science, 2025).

Tests used:
[1] = test system: gastric tumors of K19-C2mE mice; experiment: K19-C2mE spontaneous gastric cancer mouse model; type: in vivo; conditions: 40 mg/kg/day i.p., 4 weeks
Procedure: (§1) For the subcutaneous tumor model, 5 × 10⁶ MKN45 cells suspended in 100 µL of sterile PBS were injected subcutaneously into the flanks of BALB/c nude mice. When tumor volumes reached approximately 50 mm^3, mice were randomized into three groups (Vehicle control, LZQ‐02‐023‐01 at 20 mg/kg or 40 mg/kg, n = 10 per group). All treatments were administered via intraperitoneal injection once daily for 14 consecutive days. Tumor volumes were measured every 2 days using calipers and calculated using the formula: volume = [length × (width[2])]/2. Mice were sacrificed on day 24 for endpoint analyses. For genetically engineered mouse models (GEMMs), 25‐week‐old K19‐C2mE mice were randomized into Vehicle control (n = 8) and LZQ‐02‐023‐01 treatment (40 mg/kg, n = 8) groups. Both groups received daily intraperitoneal injections for 28 consecutive days. Similarly, 8‐week‐old Cldn18‐AT mice were induced with tamoxifen (100 mg/kg, T5648, Sigma) and, 2 weeks post‐induction, randomized into Vehicle (n = 6) and LZQ‐02‐023‐01 (40 mg/kg, n = 6) treatment groups. Treatments were administered daily via intraperitoneal injection for 28 days.
Paraffin sections were initially placed in an oven at 65 °C for 30 min to melt the paraffin. The slides were then immersed in two consecutive xylene baths for 10 min each to dewax the tissue, followed by hydration through a series of graded ethanol solutions. […]

[2] = Body weight and organ toxicity in treated tumor-bearing mice; type: in vivo; conditions: K19-C2mE and Cldn18-AT mice
Procedure: as §1

[3] = MKN45 xenograft, 20 or 40 mg/kg/day

In the case of `Cc1ccc(Nc2ncc3c(n2)N(C)C(=O)N(c2cccc(N)c2)C3)cn1` [LZQ-02-023-01, Three‐(3‐aminophenyl)‐1‐methyl‐7‐((6‐methylpyridin‐3‐yl)amino)‐3,4‐dihydropyrimido [4,5‐d] pyrimidin‐2 (1H)‐one], the “Pathologic grade of lesions and proliferation (H&E, Ki-67)” value [1] is reported as “lower pathologic grade lesions and proliferation”, the “Tumor burden and progression” value [1] is reported as “significantly reduce tumor burden and progression” and the Spleen weight ([2]; 40 mg/kg/day) is reported as “reduction”. For the same compound, the Body weight loss [2, 3] was “did not cause substantial weight loss” and the “Discernible toxic effects on other organs” value [2, 3] was “did not cause”.
